{"source": "patent US20090062721A1", "about": "“IONTOPHORESIS DEVICE AND METHOD OF MANUFACTURING THE SAME” (TTI ELLEBEAU INC., priority 2006, published 2009)", "assay": "pH of aqueous lidocaine hydrochloride solution brought into contact with an activated carbon fiber polarizable electrode", "format": "physicochemical", "conditions": "after contact with polarizable electrode composed of activated carbon fibers, within an extremely short time period", "note": "Counter-ions that a name gives are not always drawn.", "data": [{"smiles": "CCN(CC)CC(=O)Nc1c(C)cccc1C", "note": "[lidocaine hydrochloride]", "values": [{"measurement": "pH value of aqueous solution", "value": "about 2.5"}]}]}
